The test relates to retinal neurocytes. The experiment in a line: Cell survival of retinal neurocytes, MTT assay, 72 hours, hypoxic conditions. The class given is cell-based, rat. The conditions noted are these: for cell survival rate: normal culture = 100%. The method, then: Eyes of a […] rat were removed and retina of the eyes were separated and then put into solution 1. Retinal tissues were treated in trypsin at a temperature of 37° C. for 10 minutes and then centrifuged at 180 g for 5 minutes.
After centrifugation, a supernatant solution was discarded and all collected tissues were put into a stop solution. Aggregated tissues were disentangled by using a pipette and then centrifuged again at 180 g for 5 minutes. Separated cells were mixed with 10% FBS-MEM at a density of 1×10^6 cells/mL. 100 ul of cells were inoculated in each well of a 96-well plate and then cultured for 24 hours.
Thereafter, the culture medium was removed from the well plate for stabilization, a new culture medium and 5 uM Ara-c (cytosine arabinoside, sigma, C1768) were added thereto, cultured for 48 hours, the culture medium was removed again after 48 hours, a new culture medium was added thereto, and then cultured in an incubator having conditions of […], 5% CO2, and a temperature of 37° C. for the next experiment. Thereafter, the culture medium was removed for stabilization after another 48 hours, then a new culture medium was added thereto, and then cultured in an incubator under conditions of […], 5% CO2, and a temperature of 37° C. for the next experiment.
Cells were seeded in a 96-well plate at a density of 2×10^4 cells/well and 200 ul for each well. In this regard, cell confluence was set to be about 70% to about 80%. After 24 hours, when the cells have stabilized, a 26 gauge or 28 gauge needle was used to remove a preexisting medium from the wells. 200 ul of PBS free of serum and nutrients was added to each well, the wells were divided into EPO treatment groups and MKX-2 treatment groups, which were further divided into experimental groups according to concentrations of 0 nM, 0.1 nM, 1 nM, 10 nM, 100 nM, and 1000 nM and then treated with a drug for 72 hours under hypoxic conditions, and surviving […] neurocytes were quantitatively analyzed in an […]. The EPO used was an Eporon injection (Dong-A Pharmaceuticals, Korea). All experimental groups for each concentration included 7 wells. After a certain treatment time, 3-[4,5-dimethylthiazol-2-yl]-2,5-diphenyl tetrazolium bromide (MTT, Sigma, M2128) that was dissolved in a phosphate buffered saline (PBS) and then sterilization filtered by using a membrane filter having a thickness of 0.22 um was added to each well in an amount of 100 ul at a concentration of 1 mg/ml. In this regard, an MIT reagent was used after wrapping the MTT reagent with a foil sheet to block it from light. […]
Thereafter, an ELISA reader was used to measure an O.D. value at 570 nm for quantitatively analysis. […]
A general note: Formazan colour is commonly taken as a measure of viable cells.

For the substance “EPO: erythropoietin; the EPO used was an Eporon injection (Dong-A Pharmaceuticals, Korea)”, the “increase of cell survival rate compared to 0 nM” value (0.1 nM and 1 nM) is given as “without any statistical significance”. Besides, the cell survival rate (10 nM) is 128.03%, the cell survival rate (100 nM) is 127.6% and the cell survival rate (1000 nM) came out at 124.77%.

For the origin of these results see US20140378378A1, “ERYTHROPOIETIN-DERIVED PEPTIDE AND USE THEREFOR” (priority 2011, published 2014).
